pIC50: −log10 of the molar value. Values after ≈ are worked out from the molar mass of the structure shown.
Tests used:
[1] = system: Mtb CF 81 (Pre-XDR); type: cell-based, Mycobacterium tuberculosis; settings: Pre-XDR clinical isolate; REMA, 7 days
[2] = system: Mtb CF 105 (MDR); type: cell-based, Mycobacterium tuberculosis; settings: MDR clinical isolate; REMA, 7 days
[3] = system: M. smegmatis; type: cell-based, Mycobacterium smegmatis; settings: Sensitive; REMA, 2 days
[4] = system: M. bovis; type: cell-based, Mycobacterium bovis; settings: Sensitive; REMA, 7 days
[5] = system: Mtb CF 165 (MDR); type: cell-based, Mycobacterium tuberculosis; settings: MDR clinical isolate; REMA, 7 days
[6] = system: Mtb CF 171 (MDR); type: cell-based, Mycobacterium tuberculosis; settings: MDR clinical isolate; REMA, 7 days
[7] = system: Mtb CF 169 (Pre-XDR); type: cell-based, Mycobacterium tuberculosis; settings: Pre-XDR clinical isolate; REMA, 7 days
[8] = system: Mtb H37Rv; assay: microbe, parasite or virus in culture; type: cell-based, Mycobacterium tuberculosis; settings: for CIM90 Mtb H37Rv: Sensitive strain, REMA, 7 days; for MIC90: Mycobacterium tuberculosis, H37RV, Table 3
[9] = system: Mtb CF 162 (MDR); type: cell-based, Mycobacterium tuberculosis; settings: MDR clinical isolate; REMA, 7 days
[10] = system: Mtb CF 48 (MDR); type: cell-based, Mycobacterium tuberculosis; settings: MDR clinical isolate; REMA, 7 days
[11] = system: Mtb CF 61 (MDR); type: cell-based, Mycobacterium tuberculosis; settings: MDR clinical isolate; REMA, 7 days
[12] = system: Enterobacter aerogenes ATCC 13048 T; assay: microbe, parasite or virus in culture; type: cell-based; settings: Klebsiella aerogenes, ATCC13048
[13] = system: Proteus mirabilis ATCC 29906 T; assay: microbe, parasite or virus in culture; type: cell-based; settings: ATCC29906
[14] = system: Staphylococcus epidermidis ATCC 14990 T; assay: microbe, parasite or virus in culture; type: cell-based; settings: ATCC14990
[15] = system: MRC-5 fibroblasts; assay: cells; type: cell-based; settings: Homo sapiens, MRC5; cytotoxicity, resazurin; exposure 24 and 72 h, which one not given
[16] = system: Enterococcus faecalis ATCC 29212; assay: microbe, parasite or virus in culture; type: cell-based; settings: ATCC29212
[17] = system: Staphylococcus saprophyticus subsp. saprophyticus ATCC 15305; assay: microbe, parasite or virus in culture; type: cell-based; settings: ATCC15305
[18] = system: Klebsiella pneumoniae subsp. pneumoniae ATCC 13883 T; assay: microbe, parasite or virus in culture; type: cell-based; settings: ATCC13883
[19] = system: Klebsiella oxytoca CCT 0182; assay: microbe, parasite or virus in culture; type: cell-based; settings: CCT0182
[20] = system: Enterobacter cloacae subsp. cloacae ATCC 13883 T; assay: microbe, parasite or virus in culture; type: cell-based; settings: ATCC13883
[21] = system: Citrobacter freundii ATCC 8030 T; assay: microbe, parasite or virus in culture; type: cell-based; settings: ATCC8030
[22] = system: Murine macrophage J774.A1; assay: cells; type: cell-based; settings: Mus musculus, cytotoxicity, resazurin, exposure 24 and 72 h, which one not given
[23] = system: Enterococcus faecium NCTC 7171 T; assay: microbe, parasite or virus in culture; type: cell-based; settings: NCTC7171
[24] = system: Mtb H37Rv; assay: Checkerboard assay of Bfx with RFP; type: cell-based, Mycobacterium tuberculosis; settings: for MIC90: Mycobacterium tuberculosis, H37RV, compound alone, Table S1
Protocol: To evaluate the interaction between Bfx and RFP, a checkerboard assay was conducted following the methodology proposed by Berenbaum ([Berenbaum, 1978]).Test compounds were serially diluted in Middlebrook 7H9 broth and arranged in a 96-well plate, starting with 2x MIC for each compound. RFP was also diluted horizontally based on its MIC90. The combinations of different concentrations of Bfx and RFP were incubated with Mtb (5 × 10⁵ CFU/mL) at 37°C and 5% CO₂ for 7 days. Post-incubation, 0.01% resazurin was added, and fluorescence readings were taken after 24 h to determine the Fractional Inhibitory Concentration Index (FICI). The combined effects of the compound combinations were classified according to the Fractional Inhibitory Concentration Index (FICI):
FICI=MICofdrug1incombination/MICofdrug1+MICofdrug2incombination/MICofdrug1

[25] = system: intracellular Mtb H37Rv in J774.A1 macrophages; assay: Intracellular antimycobacterial activity in infected macrophages; type: cell-based, Mycobacterium tuberculosis; settings: 10x MIC, 72 h, CFU count
Protocol: Murine macrophage J774.A1 cells (1 × 10^6 cells/mL) were seeded in 24-well plates and incubated as previously described. After 24 h, the supernatant was discarded, and 1 mL of Mtb inoculum (2 × 10^6 CFU/mL) was added to the wells. The plate was incubated for 2 h to facilitate infection. Subsequently, the supernatant was removed, and the cells were washed with PBS. An amikacin solution (200 μg/mL) was added to ensure the sterility of the extracellular environment. After 2 h, the wells were washed, and treatments were applied (1x, 5x, and 10x MIC90 of Bfx or RFP). The cultures were then incubated for 72 h. After incubation, the cells were lysed using a Triton solution, and the supernatant was collected, serially diluted, and plated on Middlebrook 7H11 medium supplemented with 10% OADC. These plates were incubated for 20–30 days until colony-forming units (CFU) were counted ([Solcia et al., 2021]).

[26] = system: Mtb H37Rv; assay: In vivo infection and treatment, BALB/c mice; settings: daily oral 4 weeks, 5n 200 mg/kg, RFP 15 mg/kg; for reduction of the pulmonary load: abstract; for reduction of bacterial load in the lungs: intranasal infection, 5b
[27] = system: Candida albicans ATCC 90028; assay: microbe, parasite or virus in culture; type: cell-based; settings: ATCC90028, Sabouraud broth, 48 h
[28] = system: Gram-negative, Gram-positive bacteria, and fungi, including Candida albicans; assay: microbe, parasite or virus in culture; type: cell-based; settings: all the bacterial and fungal strains tested (Table 2), read-out: MIC90 for all species analyzed
[29] = system: intramacrophagic Mtb; set-up: method as in Matsumoto et al. (2006); settings: at a concentration of 1 μg/mL; experimental conditions not identical; ref Matsumoto et al. (2006); cited from earlier work

| SMILES | CIM90 CF 81 [1] | CIM90 CF 105 [2] | CIM90 M. smegmatis [3] | CIM90 M. bovis [4] | CIM90 CF 165 [5] | CIM90 CF 171 [6] | CIM90 CF 169 [7] | CIM90 Mtb H37Rv [8] | CIM90 CF 162 [9] | CIM90 CF 48 [10] | CIM90 CF 61 [11] | MIC90 [12] [µM] | MIC90 [13] [µM] | MIC90 [14] [µM] | pIC50 [15] | MIC90 [16] [µM] | MIC90 [17] [µM] | MIC90 [18] [µM] | MIC90 [8] [µM] | MIC90 [19] [µM] | also measured |
| --- | --- | --- | --- | --- | --- | --- | --- | --- | --- | --- | --- | --- | --- | --- | --- | --- | --- | --- | --- | --- | --- |
| CC(=O)NC[C@H]1CN(c2ccc(N3CCOCC3)c(F)c2)C(=O)O1 [LNZ, linezolid] | 0,47 ± 0,32 μM | 4,15 ± 0,52 μM | 1,0 ± 0,20 μM | 0,25 ± 0,1 μM | 0,95 ± 0,01 μM | 0,58 ± 0,02 μM | 0,95 ± 0,59 μM | 0,5 ± 0,20 μM | 0,41 ± 0,03 μM | 33,88 ± 1,27 μM |  |  |  |  |  |  |  |  |  |  |  |
| NCC[C@H](O)C(=O)N[C@@H]1C[C@H](N)[C@@H](O[C@H]2O[C@H](CN)[C@@H](O)[C@H](O)[C@H]2O)[C@H](O)[C@H]1O[C@H]1O[C@H](CO)[C@@H](O)[C@H](N)[C@H]1O [AMK, amikacin] | 19,52 ± 12,55 μM | 7,54 ± 11,48 μM | 6,0 ± 2,00 μM | 1,5 ± 0,50 μM | 5,33 ± 0,95 μM | 0,24 ± 0,10 μM | 0,36 ± 0,11 μM | 3,0 ± 1,00 μM | > 42,69 μM | 12,27 ± 6,77 μM | > 42,69 μM |  |  |  |  |  |  |  |  |  |  |
| NNC(=O)c1ccncc1 [INH, isoniazid] | > 182,30 μM | > 182,30 μM | 2,0 ± 0,50 μM |  | 71,56 ± 24,71 μM | > 182,30 μM | > 182,30 μM | 0,95 ± 0,43 μM | > 182,30 μM | > 182,30 μM | > 182,30 μM | > 500 | > 500 | > 500 | < 3.14 | > 500 | > 500 | > 500 | 0.95 (≈ 0.13 µg/mL) | > 500 | MIC90 [20]: > 500 µM; MIC90 [21]: > 500 µM; pIC50 [22]: < 3.14; MIC90 [23]: > 500 µM |
| CO[C@H]1/C=C/O[C@@]2(C)Oc3c(C)c(O)c4c(O)c(c(/C=N/N5CCN(C)CC5)c(O)c4c3C2=O)NC(=O)/C(C)=C\C=C\[C@H](C)[C@H](O)[C@@H](C)[C@@H](O)[C@@H](C)[C@H](OC(C)=O)[C@@H]1C [RFP, rifampicin] | > 30,38 μM | > 30,38 μM | 1,21 ± 0,00 μM | 0,10 ± 0,01 μM | > 30,38 μM | > 30,38 μM | 6,95 ± 0,19 μM | 0,05 ± 0,01 μM | > 30,38 μM | > 30,38 μM | > 30,38 μM | > 100 | 19.4 (≈ 16 µg/mL) | 0.001 (≈ 0.000823 µg/mL) | < 3.92 | 0.004 (≈ 0.00329 µg/mL) | 0.009 (≈ 0.00741 µg/mL) | 5.1 (≈ 4.2 µg/mL) | 0.05 (≈ 0.0411 µg/mL) | 7.5 (≈ 6.17 µg/mL) | MIC90 [24]: 0.05 µM; MIC90 combined ([24]; in the combination 5b + RFP): 0,00098 µM; MIC90 combined ([24]; in the combination 5n + RFP): 0,00098 µM; MIC90 [20]: > 100 µM; MIC90 [21]: 38.9 µM (≈ 32 µg/mL); pIC50 [22]: < 3.92; MIC90 [23]: > 100 µM; inhibition of bacterial load within macrophages [25]: 0.7 log10; reduction of the pulmonary load [26]: 1.23 log10 CFU/mL; reduction of bacterial load in the lungs [26]: 1.23 log10 |
| O=C(Nc1ccc(N2CCSCC2)c(F)c1)c1ccc2no[n+]([O-])c2c1 [Compound 5b] | 0,27 ± 0,00 μM | > 66,78 μM | 24,17 ± 13,00 μM |  |  |  | 0,40 ± 0,03 μM |  |  | 22,76 ± 13,20 μM | 0,28 ± 0,02 μM | > 200 | > 200 | > 200 | 4.24 | > 200 | > 200 | > 200 | 0.7 (≈ 0.262 µg/mL) | > 200 | MIC90 [27]: > 200 µM; MIC90 [28]: > 200 µM; FICI ([24]; Bfx combined with RFP): 0.11; Results (interaction with RFP) ([24]; Bfx combined with RFP): Synergistic (FICI values less than 0.5 indicate synergy); MIC90 [24]: 0.7 µM; MIC90 combined ([24]; in the combination 5b + RFP): 0,0625 µM; MIC90 [20]: > 200 µM; MIC90 [21]: > 200 µM; pIC50 [22]: 4.39; MIC90 [23]: > 200 µM; inhibition of bacterial load within macrophages [25]: 2.3 log10; reduction of bacterial load in the lungs [26]: 1.45 log10 |
| O=C(Nc1ccc(N2CCN(c3ccccn3)CC2)c(F)c1)c1ccc2no[n+]([O-])c2c1 [Compound 5n] | 1,68 ± 1,32 μM | > 57,26 μM | 41,07 ± 10,05 μM | 27,03 ± 10,43 μM | 1,84 ± 1,73 μM | 0,26 ± 0,05 μM |  |  | 2,24 ± 1,47 μM | 22.38 ± 9.37 µM | 0,56 ± 0,47 μM | > 200 | > 200 | > 200 | < 3.65 | > 200 | > 200 | > 200 | 0.09 (≈ 0.0391 µg/mL) | > 200 | MIC90 [27]: > 200 µM; MIC90 [28]: > 200 µM; Results (interaction with RFP) ([24]; Bfx combined with RFP): Synergistic (FICI values less than 0.5 indicate synergy); MIC90 [24]: 0.09 µM; MIC90 combined ([24]; in the combination 5n + RFP): 0,00578 µM; MIC90 [20]: > 200 µM; MIC90 [21]: > 200 µM; pIC50 [22]: < 3.64; MIC90 [23]: > 200 µM; inhibition of bacterial load within macrophages [25]: 0.9 log10; reduction of the pulmonary load [26]: 3.0 log10 CFU/mL; reduction of bacterial load in the lungs [26]: 3.0 log10 |
| C[C@]1(COc2ccc(N3CCC(Oc4ccc(OC(F)(F)F)cc4)CC3)cc2)Cn2cc([N+](=O)[O-])nc2O1 [delamanid] |  |  |  |  |  |  |  |  |  |  |  |  |  |  |  |  |  |  |  |  | intramacrophagic inhibition [29]: 0.7 log₁₀ CFU/mL |
| O=[N+]([O-])c1cn2c(n1)OC[C@@H](OCc1ccc(OC(F)(F)F)cc1)C2 [pretomanid] |  |  |  |  |  |  |  |  |  |  |  |  |  |  |  |  |  |  |  |  | intramacrophagic inhibition [29]: 0.2 log₁₀ CFU/mL |

From paper PMC11502347 (Frontiers in Microbiology, 2024)
